Results: ChEMBL document CHEMBL5291721, “A preclinical secondary pharmacology resource illuminates target-adverse drug reaction associations of marketed drugs” (Nat Commun, 2023)

What was measured:
[1] = target: T1, Muscarinic acetylcholine receptor M2 (Homo sapiens, UniProt P08172)
T1 sequence (P08172 whole entry): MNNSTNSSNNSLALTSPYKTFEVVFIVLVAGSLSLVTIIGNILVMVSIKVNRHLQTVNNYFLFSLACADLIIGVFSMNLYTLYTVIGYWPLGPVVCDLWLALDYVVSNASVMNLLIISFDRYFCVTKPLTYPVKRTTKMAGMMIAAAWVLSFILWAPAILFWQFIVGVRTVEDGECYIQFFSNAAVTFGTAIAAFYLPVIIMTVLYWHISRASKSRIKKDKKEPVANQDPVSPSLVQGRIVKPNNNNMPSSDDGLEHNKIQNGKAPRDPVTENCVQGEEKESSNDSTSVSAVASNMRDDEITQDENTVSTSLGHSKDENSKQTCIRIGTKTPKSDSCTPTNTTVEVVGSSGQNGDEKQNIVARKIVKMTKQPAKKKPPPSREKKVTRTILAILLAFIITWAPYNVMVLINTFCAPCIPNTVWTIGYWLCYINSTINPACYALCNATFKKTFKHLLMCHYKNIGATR

Thromboxane A2 receptor = target: T2, Thromboxane A2 receptor (Homo sapiens, UniProt P21731); type: functional, cell-based
T2 sequence (P21731 whole entry): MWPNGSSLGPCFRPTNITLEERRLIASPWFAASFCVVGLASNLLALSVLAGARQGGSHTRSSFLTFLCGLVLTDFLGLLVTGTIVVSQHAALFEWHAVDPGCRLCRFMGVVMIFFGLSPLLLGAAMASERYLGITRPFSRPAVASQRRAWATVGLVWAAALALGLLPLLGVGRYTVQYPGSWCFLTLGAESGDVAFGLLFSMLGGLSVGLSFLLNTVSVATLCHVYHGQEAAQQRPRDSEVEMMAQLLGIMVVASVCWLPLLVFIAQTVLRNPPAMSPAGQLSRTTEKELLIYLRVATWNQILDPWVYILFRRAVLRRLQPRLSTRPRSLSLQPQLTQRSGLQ

[2] = target: 3',5'-cyclic-AMP phosphodiesterase 4A (Homo sapiens, UniProt P27815); type: functional
Chain of 3',5'-cyclic-AMP phosphodiesterase 4A (P27815 whole entry): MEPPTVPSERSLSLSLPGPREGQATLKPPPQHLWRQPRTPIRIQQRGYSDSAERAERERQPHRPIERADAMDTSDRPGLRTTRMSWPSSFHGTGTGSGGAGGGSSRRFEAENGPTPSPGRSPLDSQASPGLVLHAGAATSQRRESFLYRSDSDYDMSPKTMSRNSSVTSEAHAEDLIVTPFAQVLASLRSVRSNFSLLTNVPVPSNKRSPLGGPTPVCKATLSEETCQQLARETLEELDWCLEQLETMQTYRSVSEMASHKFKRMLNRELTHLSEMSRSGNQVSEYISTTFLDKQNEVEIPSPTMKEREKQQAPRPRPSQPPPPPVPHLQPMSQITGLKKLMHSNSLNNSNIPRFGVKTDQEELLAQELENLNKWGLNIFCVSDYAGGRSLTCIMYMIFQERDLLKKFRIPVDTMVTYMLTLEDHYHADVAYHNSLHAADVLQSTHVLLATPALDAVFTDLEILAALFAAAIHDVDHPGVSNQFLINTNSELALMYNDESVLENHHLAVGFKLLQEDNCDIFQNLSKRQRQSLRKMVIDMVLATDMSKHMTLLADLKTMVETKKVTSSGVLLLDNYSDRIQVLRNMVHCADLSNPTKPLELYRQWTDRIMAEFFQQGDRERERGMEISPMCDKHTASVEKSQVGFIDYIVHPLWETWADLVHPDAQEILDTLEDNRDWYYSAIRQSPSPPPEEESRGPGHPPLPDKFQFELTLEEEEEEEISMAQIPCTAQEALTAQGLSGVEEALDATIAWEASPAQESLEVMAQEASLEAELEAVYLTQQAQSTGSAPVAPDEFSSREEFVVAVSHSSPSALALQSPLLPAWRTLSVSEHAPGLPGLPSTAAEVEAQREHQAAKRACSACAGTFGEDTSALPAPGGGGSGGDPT

[3] = target: Prostaglandin G/H synthase 1 (Homo sapiens, UniProt P23219); type: functional
Chain of Prostaglandin G/H synthase 1 (P23219 whole entry): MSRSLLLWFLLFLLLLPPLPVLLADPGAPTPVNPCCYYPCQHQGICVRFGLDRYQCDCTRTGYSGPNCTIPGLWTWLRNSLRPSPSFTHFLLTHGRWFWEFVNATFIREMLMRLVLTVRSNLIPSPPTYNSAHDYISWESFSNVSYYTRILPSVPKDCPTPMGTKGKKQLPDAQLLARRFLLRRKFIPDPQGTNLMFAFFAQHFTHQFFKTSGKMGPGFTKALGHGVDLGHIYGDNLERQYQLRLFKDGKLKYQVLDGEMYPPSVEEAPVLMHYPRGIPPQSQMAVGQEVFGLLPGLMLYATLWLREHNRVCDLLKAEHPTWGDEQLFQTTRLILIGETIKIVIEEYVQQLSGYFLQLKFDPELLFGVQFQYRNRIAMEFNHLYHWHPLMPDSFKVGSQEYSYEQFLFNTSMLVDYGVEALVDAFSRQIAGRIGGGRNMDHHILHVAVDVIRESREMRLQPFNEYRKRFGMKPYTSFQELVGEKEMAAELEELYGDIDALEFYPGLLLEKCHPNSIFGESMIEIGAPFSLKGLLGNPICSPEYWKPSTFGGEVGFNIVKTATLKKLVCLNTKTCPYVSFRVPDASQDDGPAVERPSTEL

Adenosine receptor A3 = target: T3, Adenosine receptor A3 (Homo sapiens, UniProt P0DMS8)
T3 sequence (P0DMS8 whole entry): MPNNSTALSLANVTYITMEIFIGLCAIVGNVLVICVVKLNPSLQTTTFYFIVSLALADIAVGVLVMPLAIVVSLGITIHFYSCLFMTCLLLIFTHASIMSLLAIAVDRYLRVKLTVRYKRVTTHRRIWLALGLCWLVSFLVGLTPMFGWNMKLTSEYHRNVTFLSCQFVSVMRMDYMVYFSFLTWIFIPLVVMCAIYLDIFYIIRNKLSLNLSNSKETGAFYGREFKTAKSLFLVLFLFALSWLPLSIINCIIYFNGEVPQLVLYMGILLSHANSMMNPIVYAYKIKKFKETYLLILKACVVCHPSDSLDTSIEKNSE

[4] = target: T4, Alpha-2A adrenergic receptor (Homo sapiens, UniProt P08913)
T4 sequence (P08913 whole entry): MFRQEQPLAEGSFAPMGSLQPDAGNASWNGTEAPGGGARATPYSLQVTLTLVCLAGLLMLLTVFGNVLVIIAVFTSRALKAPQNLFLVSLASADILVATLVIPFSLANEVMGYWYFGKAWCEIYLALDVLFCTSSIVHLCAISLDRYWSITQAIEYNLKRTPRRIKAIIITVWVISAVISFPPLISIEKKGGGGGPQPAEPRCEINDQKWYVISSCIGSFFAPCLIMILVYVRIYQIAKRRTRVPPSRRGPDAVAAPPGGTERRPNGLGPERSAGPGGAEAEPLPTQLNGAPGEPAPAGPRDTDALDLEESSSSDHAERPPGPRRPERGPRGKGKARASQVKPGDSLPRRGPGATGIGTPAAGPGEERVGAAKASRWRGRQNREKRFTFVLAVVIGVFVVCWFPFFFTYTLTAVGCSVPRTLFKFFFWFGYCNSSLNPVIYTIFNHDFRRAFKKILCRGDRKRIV

[5] = target: T5, 5-hydroxytryptamine receptor 1A (Homo sapiens, UniProt P08908)
T5 sequence (P08908 whole entry): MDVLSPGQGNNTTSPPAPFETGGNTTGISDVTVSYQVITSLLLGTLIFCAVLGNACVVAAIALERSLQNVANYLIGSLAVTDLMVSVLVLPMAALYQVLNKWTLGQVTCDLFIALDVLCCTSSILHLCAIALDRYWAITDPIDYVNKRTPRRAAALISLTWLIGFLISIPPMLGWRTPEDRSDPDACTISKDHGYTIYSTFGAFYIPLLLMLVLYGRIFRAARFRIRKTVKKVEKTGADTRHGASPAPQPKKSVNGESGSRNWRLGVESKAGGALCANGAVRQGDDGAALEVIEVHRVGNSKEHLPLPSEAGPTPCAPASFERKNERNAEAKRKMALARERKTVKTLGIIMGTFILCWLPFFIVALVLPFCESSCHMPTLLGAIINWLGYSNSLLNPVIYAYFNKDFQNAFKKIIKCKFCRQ

D(3) dopamine receptor = D(3) dopamine receptor (Homo sapiens, UniProt P35462)
Chain of D(3) dopamine receptor (P35462 whole entry): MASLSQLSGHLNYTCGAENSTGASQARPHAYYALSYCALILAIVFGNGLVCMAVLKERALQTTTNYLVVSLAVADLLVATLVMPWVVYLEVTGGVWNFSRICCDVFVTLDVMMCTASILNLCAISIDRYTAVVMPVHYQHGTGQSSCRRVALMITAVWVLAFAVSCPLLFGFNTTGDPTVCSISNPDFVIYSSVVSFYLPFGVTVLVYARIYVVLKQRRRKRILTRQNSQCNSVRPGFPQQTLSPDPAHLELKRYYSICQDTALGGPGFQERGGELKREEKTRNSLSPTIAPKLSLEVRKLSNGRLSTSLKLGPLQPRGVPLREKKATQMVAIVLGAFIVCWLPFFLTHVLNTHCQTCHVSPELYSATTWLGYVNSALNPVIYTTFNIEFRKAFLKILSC

[6] = target: Sodium-dependent dopamine transporter (Homo sapiens, UniProt Q01959)
Chain of Sodium-dependent dopamine transporter (Q01959 whole entry): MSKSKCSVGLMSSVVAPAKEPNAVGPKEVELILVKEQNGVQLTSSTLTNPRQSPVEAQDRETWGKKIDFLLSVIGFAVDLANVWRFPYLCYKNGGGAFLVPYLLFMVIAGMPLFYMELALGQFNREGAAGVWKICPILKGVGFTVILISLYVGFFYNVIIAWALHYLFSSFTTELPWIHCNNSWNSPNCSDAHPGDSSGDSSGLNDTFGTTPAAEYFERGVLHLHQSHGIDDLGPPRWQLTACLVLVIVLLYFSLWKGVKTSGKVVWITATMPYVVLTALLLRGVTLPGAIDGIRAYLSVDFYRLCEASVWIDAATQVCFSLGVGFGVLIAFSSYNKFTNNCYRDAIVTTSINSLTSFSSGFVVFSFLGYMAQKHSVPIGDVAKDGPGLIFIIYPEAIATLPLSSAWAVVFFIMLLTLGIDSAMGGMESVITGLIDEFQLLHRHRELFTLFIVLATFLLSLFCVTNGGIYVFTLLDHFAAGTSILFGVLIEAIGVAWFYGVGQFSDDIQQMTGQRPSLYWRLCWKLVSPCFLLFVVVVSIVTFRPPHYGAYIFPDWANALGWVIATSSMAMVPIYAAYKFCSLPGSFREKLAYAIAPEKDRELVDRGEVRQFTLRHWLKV

[7] = target: T6, Alpha-1A adrenergic receptor (Homo sapiens, UniProt P35348); type: functional, cell-based
T6 sequence (P35348 whole entry): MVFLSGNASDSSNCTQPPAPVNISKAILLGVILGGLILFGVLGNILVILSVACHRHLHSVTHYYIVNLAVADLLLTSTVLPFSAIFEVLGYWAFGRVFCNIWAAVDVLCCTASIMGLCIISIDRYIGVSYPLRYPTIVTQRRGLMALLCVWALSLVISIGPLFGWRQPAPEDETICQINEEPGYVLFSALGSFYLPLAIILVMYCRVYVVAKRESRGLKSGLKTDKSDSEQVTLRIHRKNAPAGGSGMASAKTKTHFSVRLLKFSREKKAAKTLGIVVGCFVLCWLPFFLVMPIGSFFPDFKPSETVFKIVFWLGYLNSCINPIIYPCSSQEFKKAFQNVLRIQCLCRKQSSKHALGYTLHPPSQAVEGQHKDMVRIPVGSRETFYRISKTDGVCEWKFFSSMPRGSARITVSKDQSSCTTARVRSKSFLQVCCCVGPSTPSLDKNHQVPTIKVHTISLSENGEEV

[8] = target: cGMP-inhibited 3',5'-cyclic phosphodiesterase 3A (Homo sapiens, UniProt Q14432); type: functional
Chain of cGMP-inhibited 3',5'-cyclic phosphodiesterase 3A (Q14432 whole entry): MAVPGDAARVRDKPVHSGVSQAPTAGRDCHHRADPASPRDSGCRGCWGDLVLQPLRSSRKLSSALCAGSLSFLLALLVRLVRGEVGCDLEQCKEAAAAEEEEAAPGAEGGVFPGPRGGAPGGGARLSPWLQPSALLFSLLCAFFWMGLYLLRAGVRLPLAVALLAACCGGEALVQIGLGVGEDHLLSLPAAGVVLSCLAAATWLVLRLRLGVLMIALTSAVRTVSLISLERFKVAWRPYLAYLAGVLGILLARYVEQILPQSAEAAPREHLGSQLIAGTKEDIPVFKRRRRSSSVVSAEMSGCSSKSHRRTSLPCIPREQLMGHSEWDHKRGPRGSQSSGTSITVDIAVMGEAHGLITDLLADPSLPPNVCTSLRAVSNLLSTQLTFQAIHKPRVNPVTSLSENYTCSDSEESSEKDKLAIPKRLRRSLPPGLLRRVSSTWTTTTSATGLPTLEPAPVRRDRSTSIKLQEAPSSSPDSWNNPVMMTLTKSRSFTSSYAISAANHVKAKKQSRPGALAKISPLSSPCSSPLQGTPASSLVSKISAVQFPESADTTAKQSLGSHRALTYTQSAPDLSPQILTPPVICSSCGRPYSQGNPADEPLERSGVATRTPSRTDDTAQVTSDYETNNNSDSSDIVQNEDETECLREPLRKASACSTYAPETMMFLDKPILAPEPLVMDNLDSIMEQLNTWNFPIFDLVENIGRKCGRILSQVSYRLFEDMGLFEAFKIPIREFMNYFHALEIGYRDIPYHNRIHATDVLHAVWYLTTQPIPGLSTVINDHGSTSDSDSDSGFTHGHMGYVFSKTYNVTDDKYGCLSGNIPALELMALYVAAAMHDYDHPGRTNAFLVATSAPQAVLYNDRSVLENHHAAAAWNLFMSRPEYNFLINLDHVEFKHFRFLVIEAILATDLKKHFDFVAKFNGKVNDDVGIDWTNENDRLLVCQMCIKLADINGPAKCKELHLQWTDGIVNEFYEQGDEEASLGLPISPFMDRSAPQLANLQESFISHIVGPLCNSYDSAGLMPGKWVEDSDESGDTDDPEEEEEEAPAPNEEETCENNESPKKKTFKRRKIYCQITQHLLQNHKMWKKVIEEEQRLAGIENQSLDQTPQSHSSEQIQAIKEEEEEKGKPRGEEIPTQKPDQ

[9] = target: Voltage-gated inwardly rectifying potassium channel KCNH2 (Homo sapiens, UniProt Q12809); type: functional; details: read-out: AC50
Chain of Voltage-gated inwardly rectifying potassium channel KCNH2 (Q12809 whole entry): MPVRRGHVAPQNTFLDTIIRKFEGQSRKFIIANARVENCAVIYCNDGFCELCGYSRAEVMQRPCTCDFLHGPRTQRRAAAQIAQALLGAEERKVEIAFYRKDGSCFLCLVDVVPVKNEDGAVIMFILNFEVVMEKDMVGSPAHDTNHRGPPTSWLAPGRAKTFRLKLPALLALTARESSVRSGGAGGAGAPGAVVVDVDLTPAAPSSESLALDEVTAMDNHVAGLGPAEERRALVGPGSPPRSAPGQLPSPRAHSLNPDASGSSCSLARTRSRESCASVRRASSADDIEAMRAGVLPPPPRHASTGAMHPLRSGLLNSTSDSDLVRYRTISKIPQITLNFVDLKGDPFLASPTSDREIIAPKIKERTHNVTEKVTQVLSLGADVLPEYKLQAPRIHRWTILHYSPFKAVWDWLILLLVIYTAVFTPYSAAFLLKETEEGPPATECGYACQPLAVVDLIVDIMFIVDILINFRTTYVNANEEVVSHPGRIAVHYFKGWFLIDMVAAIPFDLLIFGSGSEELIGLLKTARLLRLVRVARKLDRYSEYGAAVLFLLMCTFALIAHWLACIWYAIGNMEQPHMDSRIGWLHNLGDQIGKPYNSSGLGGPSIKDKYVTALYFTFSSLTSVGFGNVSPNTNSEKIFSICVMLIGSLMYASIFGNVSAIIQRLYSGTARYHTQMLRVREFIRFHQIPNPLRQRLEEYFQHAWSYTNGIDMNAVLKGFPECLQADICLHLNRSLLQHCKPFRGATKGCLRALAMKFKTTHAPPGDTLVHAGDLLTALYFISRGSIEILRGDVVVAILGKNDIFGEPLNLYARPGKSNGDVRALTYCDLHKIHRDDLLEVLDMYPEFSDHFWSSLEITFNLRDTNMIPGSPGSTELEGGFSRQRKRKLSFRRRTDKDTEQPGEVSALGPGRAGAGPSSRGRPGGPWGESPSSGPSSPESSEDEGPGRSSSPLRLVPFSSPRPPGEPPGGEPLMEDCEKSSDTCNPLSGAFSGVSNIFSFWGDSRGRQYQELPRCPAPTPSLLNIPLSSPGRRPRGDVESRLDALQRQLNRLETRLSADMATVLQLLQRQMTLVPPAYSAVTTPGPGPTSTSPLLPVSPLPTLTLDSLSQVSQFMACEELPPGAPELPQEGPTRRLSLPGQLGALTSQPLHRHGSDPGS
Note: assay procedure not described here.

Row | SMILES | AC50 [1] [µM] | AC50 (Thromboxane A2 receptor) [µM] | AC50 [2] [µM] | AC50 [3] [µM] | AC50 (Adenosine receptor A3) [µM] | AC50 [4] [µM] | AC50 [5] [µM] | AC50 (D(3) dopamine receptor) [µM] | AC50 [6] [µM] | AC50 [7] [µM] | AC50 [8] [µM] | AC50 [9] [µM]
1 | C[C@@H]1O[C@@H](O[C@H]2C[C@@H](O)[C@]3(CO)[C@H]4[C@H](O)C[C@]5(C)[C@@H](C6=CC(=O)OC6)CC[C@]5(O)[C@@H]4CC[C@]3(O)C2)[C@H](O)[C@H](O)[C@H]1O [OUABAIN] | > 30 | > 30 | > 30 | > 30 | > 30 | > 30 | > 30 | > 30 | > 30 | > 30 | > 30 | > 30
2 | CC(O)(CC(=O)O)CC(=O)O [MEGLUTOL] | > 30 | 13.8 | > 30 | > 30 | > 30 | > 30 | > 30 | > 30 | > 30 | > 30 | > 30 | > 30
3 | COc1ncnc(NS(=O)(=O)c2ccc(N)cc2)c1OC [SULFADOXINE] | > 30 | > 30 | > 30 | > 30 | > 30 | > 30 | > 30 | > 30 | > 30 | > 30 | > 30 | > 30
4 | Cc1c(C(C)C)c(=O)n(-c2ccccc2)n1C [PROPYPHENAZONE] | > 30 | > 30 | > 30 | > 30 | 21.9 | > 30 | > 30 | > 30 | > 30 | > 30 | > 30 | > 30
5 | COC(=O)N(C)c1c(N)nc(-c2nn(Cc3ccccc3F)c3ncccc23)nc1N [RIOCIGUAT] | > 30 | > 30 | > 30 | > 30 | 13.9 | > 30 | > 30 | > 30 | > 30 | > 30 | > 30 | 5
6 | CCCCC(=O)O[C@H]1CC[C@H]2[C@@H]3CCc4cc(O)ccc4[C@H]3CC[C@]12C [ESTRADIOL VALERATE] | > 30 | 23.1 | > 10 | > 30 | 6.74 | > 30 | > 30 | > 30 | > 30 | > 30 | 23.9 | > 30
7 | OCc1ccccc1 [BENZYL ALCOHOL] | > 30 | > 30 | > 30 | > 30 | > 30 | > 30 | > 30 | > 30 | > 30 | > 30 | > 30 | > 30
